Target: NaV1.8 (Homo sapiens, UniProt Q9Y5Y9)
Test: Activity against NaV 1.8 channel (Table 3), optical membrane potential / electrophysiology assays
Format: cell-based
Procedure: Compounds of the invention are useful as antagonists of voltage-gated sodium ion channels. Antagonist properties of test compounds were assessed as follows. Cells expressing the NaV of interest were placed into microtiter plates. After an incubation period, the cells were stained with fluorescent dyes sensitive to the transmembrane potential. The test compounds were added to the microtiter plate. The cells were stimulated with either a chemical or electrical means ti evoke a NaV dependent membrane potential change from unblocked channels, which was detected and measured with trans-membrane potential-sensitive dyes. Antagonists were detected as a decreased membrane potential response to the stimulus. The optical membrane potential assay utilized voltage-sensitive FRET sensors described by Gonzalez and Tsien (See, Gonzalez, J. E. and R. Y. Tsien (1995) “Voltage sensing by fluorescence resonance energy transfer in single cells” Biophys J 69(4): 1272-80, and Gonzalez, J. E. and R. Y. Tsien (1997) “Improved indicators of cell membrane potential that use fluorescence resonance energy transfer” Chem Biol 4(4): 269-77) in combination with instrumentation for measuring fluorescence changes such as the Voltage/Ion Probe Reader (VIPR®) (See, Gonzalez, J. E., K. Oades, et al. (1999) “Cell-based assays and instrumentation for screening ion-channel targets” Drug Discov Today 4(9): 431-439).
The following is an example of how NaV1.3 inhibition activity is measured using the optical membrane potential method #2. Other subtypes are performed in an analogous mode in a cell line expressing the NaV of interest.
HEK293 cells stably expressing NaV1.3 are plated into 96-well microtiter plates. After an appropriate incubation period, the cells are stained with the voltage sensitive dyes CC2-DMPE/DiSBAC2(3) as follows.
2X CC2-DMPE=20 μM CC2-DMPE: 10 mM CC2-DMPE is vortexed with an equivalent volume of 10% pluronic, followed by vortexing in required amount of HBSS containing 10 mM HEPES. Each cell plate will require 5 mL of 2X CC2-DMPE. 50 μL of 2X CC2-DMPE is to wells containing washed cells, resulting in a 10 μM final staining concentration. The cells are stained for 30 minutes in the dark at RT.
2X DISBAC2(3) with ABSC1=6 μM DISBAC2(3) and 1 mM ABSC1: The required amount of 10 mM DISBAC2(3) is added to a 50 ml conical tube and mixed with 1 μL 10% pluronic for each mL of solution to be made and vortexed together. Then HBSS/HEPES is added to make up 2X solution. Finally, the ABSC1 is added.
The 2X DiSBAC2(3) solution can be used to solvate compound plates. Note that compound plates are made at 2X drug concentration. Wash stained plate again, leaving residual volume of 50 μL. Add 50 uL/well of the 2X DiSBAC2(3) w/ABSC1. Stain for 30 minutes in the dark at RT.
The electrical stimulation instrument and methods of use are described in ION Channel Assay Methods PCT/US01/21652, herein incorporated by reference. The instrument comprises a microtiter plate handler, an optical system for exciting the coumarin dye while simultaneously recording the coumarin and oxonol emissions, a waveform generator, a current- or voltage-controlled amplifier, and a device for inserting electrodes in well. Under integrated computer control, this instrument passes user-programmed electrical stimulus protocols to cells within the wells of the microtiter plate.
Assay Protocol • 1. Insert or use electrodes into each well to be assayed. • 2. Use the current-controlled amplifier to deliver stimulation wave pulses for 3 s. Two seconds of pre-stimulus recording are performed to obtain the un-stimulated intensities. Five seconds of post-stimulation recording are performed to examine the relaxation to the resting state.
Data are analyzed and reported as normalized ratios of background-subtracted emission intensities measured in the 460 nm and 580 nm channels. Background intensities are then subtracted from each assay channel. […]

`Cc1ccccc1C(=O)Nc1cccc(S(N)(=O)=O)c1` [Compound 69] was tested, and the IC50 was over 10 µM.

For `NS(=O)(=O)c1cccc(NC(=O)c2ccc(Cl)cc2Br)c1` [Compound 70], the IC50 was over 10 µM.

In the case of `NS(=O)(=O)c1cccc(NC(=O)c2ccccc2CCc2ccccc2)c1` [Compound 71], the IC50 is reported as 2 to 10 µM.

In the case of `CN(C)S(=O)(=O)c1cccc(NC(=O)c2ccc(C(C)(C)C)cc2)c1` [Compound 72], the IC50 is reported as over 10 µM.

For `NS(=O)(=O)c1cccc(NC(=O)c2cccc(-n3cccn3)c2)c1` [Compound 73], the IC50 was over 10 µM.

Compound `NS(=O)(=O)c1cccc(NC(=O)c2cccc(OC(F)(F)F)c2)c1` [Compound 74] has an IC50 of over 10 µM.

Compound `Cc1ccc(-c2ccccc2C(=O)Nc2cccc(S(N)(=O)=O)c2)cc1` [Compound 75] has an IC50 of 2 to 10 µM.

For `CC(C)COC(=O)NC1CCN(c2ccccc2C(=O)Nc2cccc(S(N)(=O)=O)c2)CC1` [Compound 76], the IC50 was over 10 µM.

In the case of `COc1cc(C)ccc1C(=O)Nc1cccc(S(N)(=O)=O)c1` [Compound 77], the IC50 is reported as over 10 µM.

Compound `CC(C)(C)c1ccc(C(=O)Nc2cccc(S(N)(=O)=O)c2)c(Oc2ccc(F)cc2)c1` [Compound 78, 2-(4-Fluorophenoxy)-4-tert-butyl-N-(3-(aminosulfonyl)phenyl)benzamide] has an IC50 of under 2 µM.

`CC(C)(C)c1ccc(C(=O)Nc2ccc(Cl)c(S(N)(=O)=O)c2)cc1` [Compound 79] gave an IC50 of under 2 µM.

For `CC(C)Cc1ccc(C(=O)Nc2cccc(S(N)(=O)=O)c2)cc1` [Compound 80], the IC50 was under 2 µM.

Compound `NS(=O)(=O)c1cccc(NC(=O)c2ccc(C(F)(F)F)cc2C(F)(F)F)c1` [Compound 81] has an IC50 of over 10 µM.

`NS(=O)(=O)c1cccc(NC(=O)c2ccccc2Nc2cccc(-c3nnn[nH]3)c2)c1` [Compound 82] showed an IC50 of over 10 µM.

For `NS(=O)(=O)c1cccc(NC(=O)c2ccccc2C2CCCCC2)c1` [Compound 83, 2-Cyclohexyl-N-(3-(aminosulfonyl)phenyl)benzamide], the IC50 was under 2 µM.

In the case of `COc1cccc(Oc2ccccc2C(=O)Nc2cccc(S(N)(=O)=O)c2)c1` [Compound 84], the IC50 is reported as 2 to 10 µM.

For `COc1ccccc1C(=O)Nc1cccc(S(N)(=O)=O)c1` [Compound 85], the IC50 was over 10 µM.

`NS(=O)(=O)c1cccc(NC(=O)c2cccc(N3CCNC3=O)c2)c1` [Compound 86] showed an IC50 of over 10 µM.

With `CC(C)(C)c1ccc(C(=O)Nc2cc(S(N)(=O)=O)ccc2Cl)cc1` [Compound 87] the IC50 was over 10 µM.

In the case of `COc1ccc(Oc2cc(C(C)(C)C)ccc2C(=O)Nc2cccc(S(N)(=O)=O)c2)cc1` [Compound 88], the IC50 is reported as under 2 µM.

For `NS(=O)(=O)c1cccc(NC(=O)c2ccccc2Oc2cccc(N3CCOCC3)c2)c1` [Compound 89], the IC50 was over 10 µM.

In the case of `CN(C(=O)c1ccc(C(C)(C)C)cc1)c1cccc(S(N)(=O)=O)c1` [Compound 90, 4-tert-Butyl-N-methyl-N-(3-(aminosulfonyl)phenyl)benzamide], the IC50 is reported as over 10 µM.

`Cc1ccccc1Oc1ccccc1C(=O)Nc1cccc(S(N)(=O)=O)c1` [Compound 91] showed an IC50 of under 2 µM.

Work on `NS(=O)(=O)c1cccc(NC(=O)c2ccccc2N2CCOCC2)c1` [Compound 92] yielded an IC50 of over 10 µM.

For `CC(C)(C)c1ccc(C(=O)Nc2cccc(S(N)(=O)=O)c2)c(Br)c1` [Compound 93], the IC50 was under 2 µM.

With `NS(=O)(=O)c1cccc(NC(=O)c2ccccc2-c2ccccc2)c1` [Compound 94] the IC50 was over 10 µM.

Compound `NS(=O)(=O)c1cccc(NC(=O)c2ccccc2Oc2ccc(F)cc2)c1` [Compound 95] has an IC50 of under 2 µM.

`CCCCc1ccc(C(=O)Nc2cccc(S(N)(=O)=O)c2)cc1` [Compound 96] was tested, and the IC50 was over 10 µM.

`CC(C)(C)c1ccc(C(=O)Nc2cccc(S(N)(=O)=O)c2)c(Oc2ccccc2N2CCCCC2)c1` [Compound 97] was tested, and the IC50 was under 2 µM.

For `CC(C)(C)c1ccc(C(=O)Nc2cccc(S(N)(=O)=O)c2)c(Oc2ccccc2N2CCOCC2)c1` [Compound 98], the IC50 was under 2 µM.

`Cc1ccc(Oc2cc(C(C)(C)C)ccc2C(=O)Nc2cccc(S(N)(=O)=O)c2)c(C)n1` [Compound 99] showed an IC50 of under 2 µM.

Work on `NS(=O)(=O)c1cccc(NC(=O)c2ccc(C(F)(F)F)cc2O)c1` [Compound 100] yielded an IC50 of over 10 µM.

Compound `CC(C)(C)c1ccc(C(=O)Nc2cccc(S(N)(=O)=O)c2)c(Oc2ccc(F)cc2Cl)c1` [Compound 101] has an IC50 of under 2 µM.

In the case of `CC(=O)c1ccccc1Oc1cc(C(C)(C)C)ccc1C(=O)Nc1cccc(S(N)(=O)=O)c1` [Compound 102], the IC50 is reported as 2 to 10 µM.

Work on `CCOc1cc(C(C)(C)C)ccc1C(=O)Nc1cccc(S(N)(=O)=O)c1` [Compound 103] yielded an IC50 of under 2 µM.

For `CC(C)(C)c1ccc(C(=O)Nc2cccc(S(N)(=O)=O)c2)c(Oc2ccccc2C(F)(F)F)c1` [Compound 104], the IC50 was under 2 µM.

`CC(C)(C)c1ccc(C(=O)Nc2cccc(S(N)(=O)=O)c2)c(Sc2ccccc2)c1` [Compound 105] was tested, and the IC50 was under 2 µM.

For `COc1cc(C(C)(C)C)ccc1C(=O)Nc1cccc(S(N)(=O)=O)c1` [Compound 106], the IC50 was under 2 µM.

Work on `CC(C)(C)c1ccc(C(=O)Nc2cccc(S(N)(=O)=O)c2)c(Oc2ccc(F)cc2F)c1` [Compound 107] yielded an IC50 of under 2 µM.

Work on `Cc1cc(F)ccc1Oc1cc(C(C)(C)C)ccc1C(=O)Nc1cccc(S(N)(=O)=O)c1` [Compound 108] yielded an IC50 of under 2 µM.

Compound `Cc1ccc(Oc2cc(C(C)(C)C)ccc2C(=O)Nc2cccc(S(N)(=O)=O)c2)c(C)c1` [Compound 109] has an IC50 of under 2 µM.

In the case of `CC(C)(C)c1ccc(C(=O)Nc2cccc(S(N)(=O)=O)c2)c([S+]([O-])c2ccccc2)c1` (centres unmarked) [Compound 110, 4-tert-Butyl-2-(phenylsulfinyl)-N-(3-sulfamoylphenyl)benzamide], the IC50 is reported as 2 to 10 µM.

Work on `CC(C)(C)c1ccc(C(=O)Nc2cccc(S(N)(=O)=O)c2)c(Oc2ccccc2C#N)c1` [Compound 111] yielded an IC50 of 2 to 10 µM.

`CC(C)(C)c1ccc(C(=O)Nc2cccc(S(N)(=O)=O)c2)c(S(=O)(=O)c2ccccc2)c1` [Compound 112, 4-tert-Butyl-2-(phenylsulfonyl)-N-(3-sulfamoylphenyl)benzamide] showed an IC50 of 2 to 10 µM.

For `CC(C)(C)c1ccc(C(=O)Nc2cccc(S(N)(=O)=O)c2)c(Oc2ccc(Cl)cc2Cl)c1` [Compound 113], the IC50 was under 2 µM.

In the case of `Cc1ncccc1Oc1cc(C(C)(C)C)ccc1C(=O)Nc1cccc(S(N)(=O)=O)c1` [Compound 114], the IC50 is reported as under 2 µM.

Work on `CC(C)(C)c1ccc(C(=O)Nc2cccc(S(N)(=O)=O)c2)c(Oc2ccc(C(F)(F)F)nc2)c1` [Compound 115] yielded an IC50 of under 2 µM.

`CC(C)(C)c1ccc(C(=O)Nc2cccc(S(N)(=O)=O)c2)c(Oc2ccc(C(F)(F)F)cc2Cl)c1` [Compound 116] showed an IC50 of 2 to 10 µM.

`CCOc1ccc(C(=O)Nc2cccc(S(N)(=O)=O)c2)c(OCC)c1` [Compound 117] was tested, and the IC50 was over 10 µM.

`CC(C)(C)c1ccc(C(=O)Nc2cccc(S(N)(=O)=O)c2)c(Oc2ccc(C(N)=O)cc2)c1` [Compound 118] showed an IC50 of over 10 µM.

`Cc1cccc(Oc2cc(C(C)(C)C)ccc2C(=O)Nc2cccc(S(N)(=O)=O)c2)c1` [Compound 119] was tested, and the IC50 was under 2 µM.

For `NS(=O)(=O)c1cccc(NC(=O)c2ccc(Cl)cc2Cl)c1` [Compound 120], the IC50 was over 10 µM.

For `CN(C)S(=O)(=O)c1cccc(NC(=O)c2ccc(C(C)(C)C)cc2Oc2ccc(F)cc2Cl)c1` [Compound 121], the IC50 was under 2 µM.

In the case of `CC(=O)c1ccccc1C(=O)Nc1cccc(S(N)(=O)=O)c1` [Compound 122], the IC50 is reported as over 10 µM.

`COc1ccc(C(=O)Nc2cccc(S(N)(=O)=O)c2)c(OC)c1` [Compound 123] gave an IC50 of over 10 µM.

`Cc1cc(Oc2cc(C(C)(C)C)ccc2C(=O)Nc2cccc(S(N)(=O)=O)c2)cc(C)n1` [Compound 124] gave an IC50 of over 10 µM.

For `COC(=O)c1ccc(Oc2cc(C(C)(C)C)ccc2C(=O)Nc2cccc(S(N)(=O)=O)c2)cc1` [Compound 125], the IC50 was under 2 µM.

Compound `CC(C)(C)NS(=O)(=O)c1cccc(NC(=O)c2ccc(C(C)(C)C)cc2Br)c1` [Compound 126] has an IC50 of 2 to 10 µM.

In the case of `CS(=O)(=O)c1ccc(C(=O)Nc2cccc(S(N)(=O)=O)c2)c(Cl)c1` [Compound 127], the IC50 is reported as over 10 µM.
